Key:
Test in all cases: cells
Format in all cases: functional, cell-based
[1] = system: UO-31; conditions: Homo sapiens;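 also: cell viability assay measuring inhibition of cell growth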
Description: SANGER: Inhibition of human U031 cell growth in a cell viability assay.

[2] = system: HGC-27; conditions: Homo sapiens;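 also: growth inhibition of human HGC-27 cells, read out in a cell viability assay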
Description: SANGER: Inhibition of human HGC-27 cell growth in a cell viability assay.

[3] = system: SW48; conditions: Homo sapiens;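 also: growth inhibition of SW48 cells, read out with a cell viability assay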
Description: SANGER: Inhibition of human SW48 cell growth in a cell viability assay.

[4] = system: CWR22R; conditions: Homo sapiens, 22Rv1;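 also: growth inhibition of 22Rv1 cells, read out with a cell viability assay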
Description: SANGER: Inhibition of human 22RV1 cell growth in a cell viability assay.

[5] = system: HuO9; conditions: Homo sapiens;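 also: growth inhibition of HuO9 cells, read out with a cell viability assay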
Description: SANGER: Inhibition of human HuO9 cell growth in a cell viability assay.

[6] = system: RO82-W-1; conditions: Homo sapiens;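 also: growth inhibition of human RO82-W-1 cells, measured with a cell viability assay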
Description: SANGER: Inhibition of human RO82-W-1 cell growth in a cell viability assay.

[7] = system: SCC-9; conditions: Homo sapiens;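 also: Read-out is a cell viability assay, with values giving inhibition of cell growth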
Description: SANGER: Inhibition of human SCC-9 cell growth in a cell viability assay.

[8] = system: IGROV-1; conditions: Homo sapiens;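 also: reduction of IGROV-1 cell growth, read out with a viability assay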
Description: SANGER: Inhibition of human IGROV-1 cell growth in a cell viability assay.

[9] = system: SK-N-AS; conditions: Homo sapiens;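 also: growth inhibition of human SK-N-AS cells, measured with a cell viability assay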
Description: SANGER: Inhibition of human SK-N-AS cell growth in a cell viability assay.

[10] = system: KYSE-450; conditions: Homo sapiens;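 also: cell growth inhibition measured by a viability assay in human KYSE-450 cells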
Description: SANGER: Inhibition of human KYSE-450 cell growth in a cell viability assay.

[11] = system: SAOS-2; conditions: Homo sapiens;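 also: growth inhibition of human Saos-2 cells determined by a cell viability assay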
Description: SANGER: Inhibition of human Saos-2 cell growth in a cell viability assay.

[12] = system: HuP-T3; conditions: Homo sapiens;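 also: HuP-T3 cell growth inhibition, read out with a cell viability assay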
Description: SANGER: Inhibition of human HuP-T3 cell growth in a cell viability assay.

[13] = system: ASPC1; conditions: Homo sapiens;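 also: growth inhibition of AsPC-1 cells, read out with a cell viability assay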
Description: SANGER: Inhibition of human AsPC-1 cell growth in a cell viability assay.

[14] = system: GCT; conditions: Homo sapiens;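 also: GCT cell line proliferation inhibition, read out with a cell viability assay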
Description: SANGER: Inhibition of human GCT cell growth in a cell viability assay.

[15] = system: AU565; conditions: Homo sapiens;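 also: cell viability assay measuring growth inhibition of human AU565 cells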
Description: SANGER: Inhibition of human AU565 cell growth in a cell viability assay.

[16] = system: MDA-MB-157; conditions: Homo sapiens
Description: SANGER: Inhibition of human MDA-MB-157 cell growth in a cell viability assay.

[17] = system: ESS-1; conditions: Homo sapiens;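 also: growth inhibition of human ESS-1 cells, read out by a cell viability assay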
Description: SANGER: Inhibition of human ESS-1 cell growth in a cell viability assay.

[18] = system: 23132-87; conditions: Homo sapiens
Description: SANGER: Inhibition of human 23132-87 cell growth in a cell viability assay.

[19] = system: FTC-133; conditions: Homo sapiens
[20] = system: MIA PaCa-2; conditions: Homo sapiens;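 also: growth inhibition of MIA PaCa-2 cells, read out with a cell viability assay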
Description: SANGER: Inhibition of human MIA-PaCa-2 cell growth in a cell viability assay.

[21] = system: SK-MEL-24; conditions: Homo sapiens;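 also: growth inhibition read out by a cell viability assay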
Description: SANGER: Inhibition of human SK-MEL-24 cell growth in a cell viability assay.

[22] = system: HCC70; conditions: Homo sapiens;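 also: cell viability assay measuring how strongly the compound suppresses proliferation of HCC70 cells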
Description: SANGER: Inhibition of human HCC70 cell growth in a cell viability assay.

[23] = system: CAL-85-1; conditions: Homo sapiens;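 also: growth inhibition of human CAL-85-1 cells, read out with a cell viability assay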
Description: SANGER: Inhibition of human CAL-85-1 cell growth in a cell viability assay.

[24] = system: CAL-62; conditions: Homo sapiens;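 also: growth inhibition of CAL-62 cells, read out with a cell viability assay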
Description: SANGER: Inhibition of human CAL-62 cell growth in a cell viability assay.

[25] = system: CaR-1; conditions: Homo sapiens;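 also: growth inhibition of human CaR-1 cancer cells, read out with a cell viability assay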
Description: SANGER: Inhibition of human CaR-1 cell growth in a cell viability assay.

[26] = system: KP-4; conditions: Homo sapiens;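 also: human KP-4 cells, with growth inhibition read out through a cell viability assay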
Description: SANGER: Inhibition of human KP-4 cell growth in a cell viability assay.

[27] = system: A673; conditions: Homo sapiens;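 also: growth inhibition of human A673 cells, read out through a cell viability assay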
Description: SANGER: Inhibition of human A673 cell growth in a cell viability assay.

[28] = system: NCI-H1792; conditions: Homo sapiens;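 also: growth inhibition of human NCI-H1792 cells, read out as cell viability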
Description: SANGER: Inhibition of human NCI-H1792 cell growth in a cell viability assay.

[29] = system: A204; conditions: Homo sapiens;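 also: growth inhibition of human A204 cells, read out with a cell viability assay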
Description: SANGER: Inhibition of human A204 cell growth in a cell viability assay.

[30] = system: DU-145; conditions: Homo sapiens
Description: SANGER: Inhibition of human DU-145 cell growth in a cell viability assay.

[31] = system: NCI-H28; conditions: Homo sapiens;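 also: growth inhibition of human NCI-H28 cells, read out as cell viability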
Description: SANGER: Inhibition of human NCI-H28 cell growth in a cell viability assay.

[32] = system: LU-99A; conditions: Homo sapiens;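 also: growth inhibition of LU-99A cells, read out with a cell viability assay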
Description: SANGER: Inhibition of human LU-99A cell growth in a cell viability assay.

[33] = system: NCI-H1793; conditions: Homo sapiens;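 also: cell growth inhibition, read out by a cell viability assay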
Description: SANGER: Inhibition of human NCI-H1793 cell growth in a cell viability assay.

[34] = system: HLE; conditions: Homo sapiens;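 also: growth inhibition of human HLE cells, read out by a cell viability assay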
Description: SANGER: Inhibition of human HLE cell growth in a cell viability assay.

[35] = system: G-361; conditions: Homo sapiens
[36] = system: A-375; conditions: Homo sapiens;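 also: growth inhibition of A375 cells, read out with a cell viability assay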
Description: SANGER: Inhibition of human A375 cell growth in a cell viability assay.

[37] = system: HTC-C3; conditions: Homo sapiens;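 also: inhibition of cell growth, read out with a cell viability assay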
Description: SANGER: Inhibition of human HTC-C3 cell growth in a cell viability assay.

[38] = system: HSC-2; conditions: Homo sapiens;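 also: growth inhibition of human HSC-2 cells, read out by a cell viability assay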
Description: SANGER: Inhibition of human HSC-2 cell growth in a cell viability assay.

[39] = system: HT-3; conditions: Homo sapiens;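 also: growth inhibition measured with a cell viability readout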
Description: SANGER: Inhibition of human HT-3 cell growth in a cell viability assay.

[40] = system: SN12C; conditions: Homo sapiens;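 also: growth inhibition of human SN12C cells, measured by a cell viability assay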
Description: SANGER: Inhibition of human SN12C cell growth in a cell viability assay.

[41] = system: HT-1376; conditions: Homo sapiens
Description: SANGER: Inhibition of human HT-1376 cell growth in a cell viability assay.

[42] = system: HT-29; conditions: Homo sapiens;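 also: growth inhibition of human HT-29 cells, read out by a cell viability assay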
Description: SANGER: Inhibition of human HT-29 cell growth in a cell viability assay.

[43] = system: SNU-449; conditions: Homo sapiens
Description: SANGER: Inhibition of human SNU-449 cell growth in a cell viability assay.

[44] = system: HOS; conditions: Homo sapiens;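 also: growth inhibition of human HOS cells, read out with a cell viability assay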
Description: SANGER: Inhibition of human HOS cell growth in a cell viability assay.

[45] = system: KOSC-2; conditions: Homo sapiens;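 also: growth inhibition of KOSC-2 cells, read out by a cell viability assay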
Description: SANGER: Inhibition of human KOSC-2 cell growth in a cell viability assay.

[46] = system: LN-405; conditions: Homo sapiens
Description: SANGER: Inhibition of human LN-405 cell growth in a cell viability assay.

[47] = system: SW626; conditions: Homo sapiens;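 also: growth inhibition of SW626 cells, measured with a cell viability assay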
Description: SANGER: Inhibition of human SW626 cell growth in a cell viability assay.

[48] = system: CAL-51; conditions: Homo sapiens;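 also: human CAL-51 cell line, growth inhibition read out via a cell viability assay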
Description: SANGER: Inhibition of human CAL-51 cell growth in a cell viability assay.

[49] = system: HCC1954; conditions: Homo sapiens;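 also: growth inhibition of human HCC1954 cells, read out with a cell viability assay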
Description: SANGER: Inhibition of human HCC1954 cell growth in a cell viability assay.

[50] = system: NCI-H1563; conditions: Homo sapiens;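 also: growth inhibition of human NCI-H1563 cells, read out with a cell viability assay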
Description: SANGER: Inhibition of human NCI-H1563 cell growth in a cell viability assay.

[51] = system: U-118-MG; conditions: Homo sapiens
Description: SANGER: Inhibition of human U-118-MG cell growth in a cell viability assay.

[52] = system: NB14; conditions: Homo sapiens;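 also: growth inhibition of NB14 cells measured with a cell viability assay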
Description: SANGER: Inhibition of human NB14 cell growth in a cell viability assay.

Measured: IC50

O=c1cc(N2CCOCC2)oc2c(-c3cccc4c3sc3ccccc34)cccc12
> 2 µM: [1] | [2] | [3] | [4] | [5] | [6] | [7] | [8] | [10] | [11] | [12] | [13] | [14] | [15] | [16] | [17] | [18] | [19] | [20] | [21] | [22] | [23] | [24] | [25] | [26] | [27] | [28] | [29] | [30] | [31] | [32] | [34] | [35] | [36] | [37] | [38] | [39] | [40] | [41] | [42] | [43] | [44] | [45] | [46] | [47] | [48] | [49] | [50] | [51] | [52]
1.46 µM: [33]
0.622 µM: [9]

COc1cc(Nc2c(C#N)cnc3cc(OCCCN4CCN(C)CC4)c(OC)cc23)c(Cl)cc1Cl [BOSUTINIB]
1.64 µM: [41]
0.488 µM: [8]
> 2 µM: [1] | [2] | [3] | [4] | [5] | [6] | [7] | [9] | [10] | [11] | [12] | [13] | [14] | [15] | [16] | [17] | [18] | [19] | [20] | [21] | [22] | [23] | [24] | [25] | [26] | [27] | [28] | [29] | [30] | [31] | [32] | [33] | [34] | [35] | [37] | [38] | [39] | [40] | [42] | [43] | [44] | [46] | [47] | [48] | [49] | [50] | [51] | [52]
1.52 µM: [36]
1.32 µM: [45]

C[C@]12O[C@H](C[C@]1(O)CO)n1c3ccccc3c3c4c(c5c6ccccc6n2c5c31)CNC4=O [LESTAURTINIB]
1.65 µM: [15]
0.232 µM: [44]
0.158 µM: [19]
1.01 µM: [32]
0.0716 µM: [3]
0.862 µM: [20]
0.145 µM: [9]
> 2 µM: [1] | [6] | [10] | [21] | [22] | [23] | [30] | [33] | [41] | [43] | [46] | [49] | [50] | [51]
1.39 µM: [34]
1.5 µM: [38]
0.561 µM: [5]
0.838 µM: [18]
0.186 µM: [37]
1.13 µM: [47]
1.62 µM: [13]
0.88 µM: [28]
0.635 µM: [11]
0.449 µM: [39]
0.568 µM: [26]
0.833 µM: [31]
0.966 µM: [12]
0.452 µM: [8]
0.278 µM: [48]
0.398 µM: [40]
0.152 µM: [29]
0.221 µM: [35]
0.332 µM: [36]
1.4 µM: [4]
1.21 µM: [7]
0.327 µM: [14] | [45]
0.718 µM: [27]
0.682 µM: [17]
0.147 µM: [25]
0.666 µM: [42]
0.276 µM: [16]
0.254 µM: [24]
0.19 µM: [2]
0.0196 µM: [52]

CCCS(=O)(=O)Nc1ccc(F)c(C(=O)c2c[nH]c3ncc(Cl)cc23)c1F [PLX-4720]
0.346 µM: [35]
> 10 µM: [1] | [2] | [3] | [4] | [5] | [6] | [7] | [8] | [9] | [10] | [11] | [12] | [13] | [15] | [16] | [17] | [18] | [19] | [20] | [21] | [22] | [23] | [24] | [25] | [27] | [28] | [29] | [30] | [31] | [32] | [33] | [34] | [38] | [39] | [40] | [41] | [42] | [43] | [44] | [45] | [46] | [47] | [48] | [49] | [50] | [51] | [52]
1.66 µM: [37]
0.674 µM: [36]
2.31 µM: [26]
8.75 µM: [14]

C[C@]1(c2nc3c(C(N)=O)cccc3[nH]2)CCCN1 [VELIPARIB]
> 5 µM: [1] | [2] | [3] | [4] | [5] | [6] | [7] | [8] | [9] | [10] | [11] | [12] | [13] | [14] | [15] | [16] | [17] | [18] | [19] | [20] | [21] | [22] | [23] | [24] | [25] | [26] | [27] | [28] | [29] | [30] | [31] | [32] | [33] | [34] | [35] | [36] | [37] | [38] | [39] | [40] | [41] | [42] | [43] | [44] | [45] | [46] | [47] | [48] | [49] | [50] | [51] | [52]

Source: ChEMBL document CHEMBL1201861, “Genomics of Drug Sensitity in Cancer screening data, Wellcome Trust Sanger Institute”
